Experimental data as given in US10632127B2, “Targeted notch pathway inhibitors” (Hoffmann-La Roche Inc., priority 2015, dated 2020).
Where a name gives a salt, the structure may show the parent alone.

How the values were obtained:
[1] = target: Notch signal transduction pathway; assay: In vitro Notch signal transduction pathway activity assay (DR215/F2 luciferase reporter); format: cell-based, human
Experimental: The compounds were dissolved in dimethyl sulfoxide (DMSO) at 10 mM stock solution, aliquoted and stored at −4° C. until use, then diluted in PBS or cell culture medium. In the experimental settings, controls containing increasing concentrations of DMSO, corresponding to the amount of DMSO of the diluted compounds were always included. For in vivo experiments, the compounds were dissolved in 0.9% NaCl, incubated 30 min at 40° C. and sonicated for 5 min.
The requirement of proteolytic activation of the prodrugs to inhibit Notch cleavage by the γ-secretase, was investigated using a reporter assay (Table 3). The DR215/F2 cell line expresses a reporter construct designed to monitor the activity of the Notch signal transduction pathway. The DR215/F2 cell line 39 carries two transgenes: the firefly luciferase reporter gene expressed under the control of the Gal4 promoter and the human Notch1 activator gene fused with the yeast Gal4 transcription factor. This assay confirmed that the prodrugs were able to inhibit γ-secretase and the activation of the Notch pathway. The DR215/F2 cell reporter assay was also used to determine the IC50 for blockade of the Notch pathway by all the compounds designed and prepared.
The values were determined using the 215/F2 reporter cell line for Notch activation by the γ-secretase. All values are the mean of at least 3 experiments.
The preparation and characterization of rat brain-derived EC219 endothelial cells have been described in Juillerat-Jeanneret, L. et al. In Vitro Cell. Dev. Biol. 1992, 28A, 537-543. These cells express high levels of APA and γ-GT activities and can be used for determining kinetics in living cells, and were chosen as APA- and γ-GT-positive representative cell models. EC219 cells were grown in DMEM medium containing 1 g/l glucose, 10% heat-inactivated fetal calf serum (FCS, EuroClone, UK) supplemented with 100 U/mL penicillin and 100 μg/mL streptomycin (P/S) on uncoated cell culture plastic ware. The HEK293 and HK2 human kidney cells are available from the ATCC (American Tissue Culture Collection, Manassas, Va., USA). HEK293 cells were grown on uncoated cell culture plastic ware in Iscove modified Dulbecco medium (IMDM, Life Technologies) containing 10% FCS and P/S. HK2 cells were grown on uncoated cell culture plastic ware in DMEM/F-12 GlutaMAX medium (Gibco) containing 5% FCS, P/S, 1% ITS (1.0 mg/ml bovine insulin, 0.55 mg/ml human transferrin and 0.5 μg/ml sodium selenite, Sigma-Aldrich) and 5 ng/ml hydrocortisone. The human HEK293-derived DR215/F2 embryonic kidney cell line, stably transfected with pFR Luc and APP-Notch Gal (plasmid DR215) as described in WO 2006/061136 A2 and Brockhaus, M. Neuroreport 1998 9, 1481-1486, were maintained using IMDM with 10% FCS supplemented with P/S and kept under double-selection with 150 μg/ml G-418 and 50 μg/ml hygromycin B on coated (1:100 Poly-L-lysine) cell culture plastic ware. In this assay, the Notch-Gal4 protein is bound to the cell membrane via its trans-membrane domain. The Notch intracellular domain is released by proteolytic cleavage mediated by the γ-secretase and moves to the cell nucleus where it activates the reporter luciferase gene transcript. Inhibition of γ-secretase thus decreases luciferase activity. Briefly, cultures were grown in 96-well microplates to 80% confluence; the cells were then washed in PBS and exposed to decreasing concentrations of the γ-secretase-inhibitor analogues in complete IMDM culture medium without red phenol at 37° C. for 19 h. Then 75 μl of supernatant from each well was removed and the luciferase activity was determined by adding 25 μl of Steady-Glo luciferase assay reagent (Promega).

EC219 cells = assay: Extracellular release of the γ-secretase inhibitor from prodrugs by EC219 endothelial cells; format: in vitro ADME, rat; conditions: HEK293, 215/F2, HK2 and EC219 cells, 20 μM in PBS, 19 h
Experimental: FIG. 2A. Extracellular release of amine-SecrI (11a) metabolites for α-Glu- and γ-Glu-secretase inhibitor prodrugs. The prodrugs were added to the cells for 19 h, then the supernatants were harvested and analyzed for SecrI (8), amine-SecrI (11a), the prodrugs 13a, 13b, 15a, 15b and (for 13a, 15a) also the correponding deacetylated metabolites.
Cpd added: 20 μM in PBS, 19 h incubation. SecrI (8) is stable when added to cells for 19 h; free SecrI (8) was never detected from any prodrug.
The preparation and characterization of rat brain-derived EC219 endothelial cells have been described in Juillerat-Jeanneret, L. et al. In Vitro Cell. Dev. Biol. 1992, 28A, 537-543. These cells express high levels of APA and γ-GT activities and can be used for determining kinetics in living cells, and were chosen as APA- and γ-GT-positive representative cell models. EC219 cells were grown in DMEM medium containing 1 g/l glucose, 10% heat-inactivated fetal calf serum (FCS, EuroClone, UK) supplemented with 100 U/mL penicillin and 100 μg/mL streptomycin (P/S) on uncoated cell culture plastic ware. The HEK293 and HK2 human kidney cells are available from the ATCC (American Tissue Culture Collection, Manassas, Va., USA). HEK293 cells were grown on uncoated cell culture plastic ware in Iscove modified Dulbecco medium (IMDM, Life Technologies) containing 10% FCS and P/S. HK2 cells were grown on uncoated cell culture plastic ware in DMEM/F-12 GlutaMAX medium (Gibco) containing 5% FCS, P/S, 1% ITS (1.0 mg/ml bovine insulin, 0.55 mg/ml human transferrin and 0.5 μg/ml sodium selenite, Sigma-Aldrich) and 5 ng/ml hydrocortisone. […] Then 75 μl of supernatant from each well was removed and the luciferase activity was determined by adding 25 μl of Steady-Glo luciferase assay reagent (Promega).
A first screen of the different γ-secretase prodrugs was performed in vitro to determine the cleavage rate of each compound and ex-vivo in mouse kidney tissues. Extracellular release of the γ-secretase inhibitor from prodrugs by human kidney cells (HEK293, HEK293-derived Notch-reporter 215/F2 cells28,39 and HK2 cells) as well as the rat brain-derived EC219 endothelial cells which express very high levels of APA and γ-GT activities were evaluated for liberating active inhibitors SecrI (8) or amine-SecrI (11a) (FIG. 2A).
All samples were analyzed using protein precipitation followed by LC-MS/MS analysis. […] One μL of the supernatant was analyzed by LC/MS. […]

γ-secretase = γ-secretase (Homo sapiens, UniProt P49768); assay: In vitro γ-secretase activity assay (cell-free); format: biochemical; conditions: HEK293 membrane fraction, recombinant APP substrate, Abeta ELISA
Experimental: The γ-secretase activity of the γ-secretase inhibiting alcohols of formula (A) of present invention was determined in cell-free in vitro assays where e.g., a cell lysate containing the γ-secretase complex is incubated with a suitable β-Amyloid Precursor Protein (APP)-derived substrate which is cleaved to the Abeta peptides. The amount of produced peptides can be determined with specific ELISA assays. Cell lines of neuronal origin secrete Abeta peptides which can be measured with the specific ELISA assay. Treatment with compounds which inhibit γ-secretase leads to a reduction of secreted Abeta thus providing a measure of inhibition.
The in vitro assay of γ-secretase activity uses a HEK293 membrane fraction as a source of γ-secretase and a recombinant APP substrate. Latter consist of the C-terminal 100 amino acids of human APP fused to a 6×Histidin tail for purification which is expressed in E. coli in a regulatable expression vector, e.g. pEt15. This recombinant protein corresponds to the truncated APP fragment which results after […] of the extracellular domain and which constitutes the γ-secretase substrate. […] The Abeta peptides which are produced by γ-secretase cleavage of the substrate are detected by specific ELISA assays as described (Brockhaus M et al, Neuroreport 9(7), 1481-1486 (1998).

Row | IC50 for blockade of the Notch pathway, range in words ([1]; DR215/F2 cell reporter assay) | IC50 ([1]; Homo sapiens, 215/F2 reporter cell line, 19 h, mean of at least 3 experiments) | hydrolysis by γ-GT (EC219 cells) | IC50 (γ-secretase) | SMILES
1 | μM range | 1090 nM | also not hydrolyzed by γ-GT | – | C[C@H]1Oc2ccc(F)cc2N(CCOC(=O)NCCNC(=O)CC[C@H](N)C(=O)O)C(=O)[C@H]1NC(=O)[C@@](C)(O)C(=O)NCC(F)(F)C(F)(F)F [Compound 13b, (S)-2-Amino-5-(2-((2-((2R,3S)-7-fluoro-3-((S)-2-hydroxy-2-methyl-3-oxo-3-(2,2,3,3,3-pentafluoropropylamino)propanamido)-2-methyl-4-oxo-3,4-dihydrobenzo[b][1,4]oxazepin-5(2H)-yl)ethoxy)carbonylamino)ethylamino)-5-oxopentanoic acid hydrochloride]
2 | – | – | – | 90 nM | C[C@H]1Oc2ccc(F)cc2N(CCO)C(=O)[C@H]1NC(=O)C(C)(C)C(=O)NCC(F)(F)C(F)(F)F [Example 53, N-[(6R,7S)-2-Fluoro-9-(2-hydroxy-ethyl)-6-methyl-8-oxo-6,7,8,9-tetrahydro-5-oxa-9-aza-benzocyclohepten-7-yl]-2,2-dimethyl-N′-(2,2,3,3,3-pentafluoro-propyl)-malonamide]
